Results from US20150079000A1, “Labelled Quinoxaline Derivatives as Multimodal Radiopharmaceuticals and Their Precursors” (INSTITUT NATIONAL DE LA SANTET DE LA RECHERCHE MEDICALE, priority 2012, published 2015).

Test system: B16 murine melanoma tumours
Experiment: Ex vivo biodistribution study for compound [125I](1)
Assay type: in vivo, C57BL/6J mice
Description: Twenty four B16BL6 primary melanoma bearing mice were intravenously injected with 2.2 MBq of [^1251]1 and sacrificed 1 h, 3 h, 6 h, 24 h, 72 h and 10 days after tracer injection (n=4/time point). Tumours and major organs and tissues were promptly excised, harvested, weighted and their radioactivity counted using a calibrated γ-counter with a […] energy window. After radioactive decay correction, results were expressed as percentage of injected dose per gram of tissue (% ID/g).

## CCN(CCNC(=O)c1cnc2cc([125I])ccc2n1)CCOCCOCCOCCF [[^125I](1)]
6 h p.i.
  % ID/g Blood: 0.62 ± 0.20 % ID/g
  % ID/g Bones: 0.30 ± 0.10 % ID/g
  % ID/g Brain: 0.08 ± 0.03 % ID/g
  % ID/g Ceacum: 23.31 ± 16.47 % ID/g
  % ID/g Colon: 15.92 ± 9.97 % ID/g
  % ID/g Heart: 0.46 ± 0.17 % ID/g
  % ID/g Kidney: 1.56 ± 0.82 % ID/g
  % ID/g Liver: 2.02 ± 0.64 % ID/g
  % ID/g Lung: 1.04 ± 0.37 % ID/g
  % ID/g Muscle: 0.17 ± 0.07 % ID/g
  % ID/g Pancreas: 0.65 ± 0.18 % ID/g
  % ID/g Skin: 0.62 ± 0.31 % ID/g
  % ID/g Small intestine: 2.23 ± 1.35 % ID/g
  % ID/g Spleen: 6.45 ± 8.15 % ID/g
  % ID/g Stomach: 7.39 ± 4.08 % ID/g
  % ID/g Testes: 0.36 ± 0.08 % ID/g
24 h p.i.
  % ID/g Adipose: 0.028 ± 0.00 % ID/g
  % ID/g Blood: 0.06 ± 0.01 % ID/g
  % ID/g Bones: 0.03 ± 0.00 % ID/g
  % ID/g Brain: 0.01 ± 0.01 % ID/g
  % ID/g Ceacum: 0.41 ± 0.13 % ID/g
  % ID/g Colon: 0.69 ± 0.23 % ID/g
  % ID/g Heart: 0.16 ± 0.06 % ID/g
  % ID/g Kidney: 0.15 ± 0.02 % ID/g
  % ID/g Liver: 0.46 ± 0.10 % ID/g
  % ID/g Lung: 0.08 ± 0.01 % ID/g
  % ID/g Muscle: 0.02 ± 0.00 % ID/g
  % ID/g Pancreas: 0.05 ± 0.01 % ID/g
  % ID/g Skin: 0.17 ± 0.00 % ID/g
  % ID/g Small intestine: 0.12 ± 0.03 % ID/g
  % ID/g Spleen: 0.06 ± 0.01 % ID/g
  % ID/g Stomach: 0.54 ± 0.25 % ID/g
  % ID/g Testes: 0.03 ± 0.01 % ID/g
72 h p.i.
  % ID/g Adipose: 0.02 ± 0.00 % ID/g
  % ID/g Bones: 0.02 ± 0.01 % ID/g
  % ID/g Brain: 0.01 ± 0.00 % ID/g
  % ID/g Ceacum: 0.33 ± 0.29 % ID/g
  % ID/g Colon: 0.25 ± 0.10 % ID/g
  % ID/g Heart: 0.08 ± 0.02 % ID/g
  % ID/g Kidney: 0.24 ± 0.04 % ID/g
  % ID/g Liver: 0.08 ± 0.00 % ID/g
  % ID/g Lung: 0.05 ± 0.01 % ID/g
  % ID/g Muscle: 0.02 ± 0.00 % ID/g
  % ID/g Pancreas: 0.03 ± 0.01 % ID/g
  % ID/g Skin: 0.50 ± 0.26 % ID/g
  % ID/g Small intestine: 0.07 ± 0.03 % ID/g
  % ID/g Spleen: 0.52 ± 0.96 % ID/g
  % ID/g Stomach: 0.16 ± 0.05 % ID/g
  % ID/g Testes: 0.02 ± 0.00 % ID/g
10 d p.i.
  % ID/g Adipose: 0.01 ± 0.01 % ID/g
  % ID/g Bones: 0.01 ± 0.01 % ID/g
  % ID/g Brain: 0.00 ± 0.00 % ID/g
  % ID/g Ceacum: 0.02 ± 0.02 % ID/g
  % ID/g Colon: 0.02 ± 0.01 % ID/g
  % ID/g Heart: 0.03 ± 0.01 % ID/g
  % ID/g Kidney: 0.04 ± 0.03 % ID/g
  % ID/g Liver: 0.01 ± 0.00 % ID/g
  % ID/g Lung: 0.01 ± 0.01 % ID/g
  % ID/g Muscle: 0.01 ± 0.06 % ID/g
  % ID/g Pancreas: 0.02 ± 0.03 % ID/g
  % ID/g Skin: 0.05 ± 0.06 % ID/g
  % ID/g Small intestine: 0.01 ± 0.00 % ID/g
  % ID/g Spleen: 0.23 ± 0.41 % ID/g
  % ID/g Stomach: 0.03 ± 0.01 % ID/g
  % ID/g Testes: 0.00 ± 0.00 % ID/g
